Assay results from patent US7521236B2, “Sulfur-oxidizing plant growth promoting rhizobacteria for enhanced canola performance” (priority 2002, dated 2009).

What was measured:
Assay type in all cases: in vivo
canola plants [1] = experiment: Growth room experiment in sulfur deficient Melfort, SK soil: biomass and yield; details: 105 DAP
Description: (§1) Effects of bacterial inoculation on plant growth parameters were studied in a growth room with the four screened S-oxidizing strains (RAY12, RAY28, RAY132 and RAY209). More emphasis was given on plant growth characteristics including canola seed yield. Growth room assay was conducted with a sulfur deficient field soil, collected near Melfort, Saskatchewan, and was a loam (pH 7.8, electrical conductivity (mS/cm) 0.2 with following nutrient levels in ppm. nitrate nitrogen 7.3, phosphorous 14.6, potassium 187.1 and sulfur 9.5. Rhizobacterial strains RAY12, RAY28, RAY132 and RAY209 were used for the canola seed inoculation. The experiment was consisting of eight bacterial treatments along with three controls (control—no sulfur; elemental S control; and sulfate S control) each having three replications. One and half kg sieved soil (<5 mm mesh) was added to 16-cm plastic pots and the pots were kept in a growth room (22° C., 16 h light; 18° C., 8 h dark). Five seeds were planted in each of the pots and seedlings were thinned to one per pot after emergence. Daily watering to constant weight ensured similar matric potential between the pots. Canola plants were harvested at maturity (105 DAP) and stalk dry weight, pod number, pod weight and seed weight or yield determined. In another growth room experiment done in similar manner as previous one, canola seed yield, and, seed macronutrients (S, N, P, K, Ca and Mg) and micronutrients (Zn, B, Cu and Fe) uptake were determined.

canola plants [2] = experiment: Second growth room experiment: seed yield and seed nutrient uptake; details: per plant; for B uptake / Ca uptake / Cu uptake / K uptake / Mg uptake / N uptake / P uptake / S uptake / Zn uptake: seed
Description: as §1

canola = experiment: Field trial 2002, Dauphin, MB; details: canola seed, Dauphin field site
Description: In 2002, field trials were carried out using three canola PGPR strains. The canola trials were planted through commercial seed planter using bacteria inoculated powdered peat-based carrier material coated seeds. The cultivar used was the same as 2001. All field trials were randomized complete block design having each plot size of 6 m×1.5 m, with nine bacterial treatments along with three controls, all with six replicates. […] Plots were harvested at maturity, seed was collected and cleaned, and yield was measured based on 8.5% seed moisture. In addition, canola seed macronutrients (S, N, P, K, Ca and Mg) and micronutrients (Zn, Mn, Cu and Fe) uptake were also determined.

canola plants [3] = experiment: Second growth room experiment: seed yield and seed nutrient uptake; details: seed, per plant

Row | Compound | pod no. (canola plants [1]) [NO./PLANT] | pod wt. (canola plants [1]) [G/PLANT] | seed wt. (canola plants [1]) [G/PLANT] | stalk dry wt. (canola plants [1]) [G/PLANT] | seed yield (canola plants [2]) [g] | B uptake (canola plants [2]) [µg] | Ca uptake (canola plants [2]) [mg] | Cu uptake (canola plants [2]) [µg] | K uptake (canola plants [2]) [mg] | Mg uptake (canola plants [2]) [mg] | N uptake (canola plants [2]) [mg] | P uptake (canola plants [2]) [mg] | S uptake (canola plants [2]) [mg] | Zn uptake (canola plants [2]) [µg] | Ca uptake (canola) [kg/ha] | Cu uptake (canola) [g/ha] | Fe uptake (canola) [g/ha] | K uptake (canola) [kg/ha] | Mg uptake (canola) [kg/ha] | Mn uptake (canola) [g/ha] | further results
1 | sulfate sulfur [SO4] | 78 | 4.20 | 1.71 | 4.56 | 3.11 | 0.13 | 11.71 | 0.03 | 27.52 | 12.12 | 116.30 | 28.24 | 15.76 | 1.72 | 5.02 | 2.61 | 68.20 | 9.09 | 4.14 | 37.22 | N uptake (canola): 39.74 kg/ha; P uptake (canola): 8.71 kg/ha; S uptake (canola): 5.10 kg/ha; Zn uptake (canola): 51.32 g/ha; Mn uptake (canola plants [3]): 1.22 µg
2 | [S] [ES, elemental sulfur] | 58 | 3.17 | 1.13 | 3.84 | 2.92 | 0.09 | 12.10 | 0.03 | 28.42 | 11.37 | 116.30 | 28.71 | 18.66 | 2.08 | 4.50 | 2.17 | 57.17 | 7.60 | 3.51 | 28.97 | N uptake (canola): 32.91 kg/ha; P uptake (canola): 7.54 kg/ha; S uptake (canola): 4.13 kg/ha; Zn uptake (canola): 40.05 g/ha; Mn uptake (canola plants [3]): 1.14 µg
